Assay results from paper PMC9564936 (Proceedings of the National Academy of Sciences of the …, 2022).

Legend:
EF-P (A1S_2419) [1] = molecular target: T1, EF-P (A1S_2419) (Acinetobacter baumannii, UniProt A3M7E3); assay: isothermal titration calorimetry; format: binding
T1 sequence (A3M7E3 1-189): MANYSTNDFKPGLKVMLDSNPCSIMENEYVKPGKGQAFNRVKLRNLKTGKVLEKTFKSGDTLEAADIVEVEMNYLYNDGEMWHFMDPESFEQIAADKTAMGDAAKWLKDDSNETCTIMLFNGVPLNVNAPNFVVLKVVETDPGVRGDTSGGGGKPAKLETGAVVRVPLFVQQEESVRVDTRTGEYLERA

EF-P (A1S_2419) [2] = molecular target: T1, EF-P (A1S_2419); assay: differential scanning fluorimetry; format: binding; settings: 500 µM c-di-GMP

Kd (EF-P (A1S_2419) [1]): 5.9 µM | Kd (EF-P of A. albensis): 10.7 µM
SMILES: Nc1nc2c(ncn2[C@@H]2O[C@@H]3COP(=O)(O)O[C@H]4[C@@H](O)[C@H](n5cnc6c(=O)[nH]c(N)nc65)O[C@@H]4COP(=O)(O)O[C@H]3[C@H]2O)c(=O)[nH]1 [c-di-GMP, bis-(3′-5′)-cyclic guanosine monophosphate]
thermal shift (EF-P (A1S_2419) [2]): The DSF assay showed a marked shift in the melting curve of EF-P
